Measured values as given in patent US20200270233A1, “DHFR INHIBITORS, COMPOSITIONS, AND METHODS RELATED THERETO” (Vyera Pharmaceuticais LLC, priority 2017, published 2020).
Like-named read-outs stand apart in the source and are kept apart here.

Experiments:
[1] = molecular target: T1, hDHFR (Homo sapiens, UniProt P00374); assay type: biochemical
T1 sequence (P00374 1-187): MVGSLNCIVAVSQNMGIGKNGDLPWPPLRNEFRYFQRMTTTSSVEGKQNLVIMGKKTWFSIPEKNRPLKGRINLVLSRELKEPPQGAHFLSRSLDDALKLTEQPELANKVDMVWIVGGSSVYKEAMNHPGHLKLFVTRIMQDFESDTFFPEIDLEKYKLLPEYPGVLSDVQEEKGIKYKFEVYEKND

[2] = molecular target: T. cruzi DHFR (tcDHFR) (Trypanosoma cruzi, UniProt Q27793); assay: biochemical; conditions: for Average DHFR selectivity (h/tc): hDHFR IC50/tcDHFR IC50
Chain of T. cruzi DHFR (tcDHFR) (Q27793 whole entry): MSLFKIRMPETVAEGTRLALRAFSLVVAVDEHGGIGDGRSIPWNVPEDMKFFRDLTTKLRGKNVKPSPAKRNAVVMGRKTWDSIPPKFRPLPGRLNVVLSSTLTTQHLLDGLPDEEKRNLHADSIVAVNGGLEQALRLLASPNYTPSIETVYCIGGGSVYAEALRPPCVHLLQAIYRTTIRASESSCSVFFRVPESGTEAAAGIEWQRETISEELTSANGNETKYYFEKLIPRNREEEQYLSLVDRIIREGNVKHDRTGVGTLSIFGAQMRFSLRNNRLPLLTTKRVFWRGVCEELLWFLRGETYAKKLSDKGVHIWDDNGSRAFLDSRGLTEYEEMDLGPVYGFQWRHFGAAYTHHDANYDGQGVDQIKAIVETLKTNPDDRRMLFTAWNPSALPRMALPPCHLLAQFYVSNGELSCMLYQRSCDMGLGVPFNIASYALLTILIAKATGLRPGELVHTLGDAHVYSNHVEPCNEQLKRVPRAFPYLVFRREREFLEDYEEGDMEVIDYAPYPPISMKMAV

[3] = molecular target: T2, T. gondii DHFR (tgDHFR) (Toxoplasma gondii, UniProt Q07422); assay: biochemical; conditions: Table 16; for Average DHFR selectivity (h/tg): hDHFR IC50/tgDHFR IC50; for IC50: pIC50 = -log10 IC50, at least three replicates, read-out: tgDHFR pIC50-DHFR primary assay (converted)
T2 sequence (Q07422 1-610): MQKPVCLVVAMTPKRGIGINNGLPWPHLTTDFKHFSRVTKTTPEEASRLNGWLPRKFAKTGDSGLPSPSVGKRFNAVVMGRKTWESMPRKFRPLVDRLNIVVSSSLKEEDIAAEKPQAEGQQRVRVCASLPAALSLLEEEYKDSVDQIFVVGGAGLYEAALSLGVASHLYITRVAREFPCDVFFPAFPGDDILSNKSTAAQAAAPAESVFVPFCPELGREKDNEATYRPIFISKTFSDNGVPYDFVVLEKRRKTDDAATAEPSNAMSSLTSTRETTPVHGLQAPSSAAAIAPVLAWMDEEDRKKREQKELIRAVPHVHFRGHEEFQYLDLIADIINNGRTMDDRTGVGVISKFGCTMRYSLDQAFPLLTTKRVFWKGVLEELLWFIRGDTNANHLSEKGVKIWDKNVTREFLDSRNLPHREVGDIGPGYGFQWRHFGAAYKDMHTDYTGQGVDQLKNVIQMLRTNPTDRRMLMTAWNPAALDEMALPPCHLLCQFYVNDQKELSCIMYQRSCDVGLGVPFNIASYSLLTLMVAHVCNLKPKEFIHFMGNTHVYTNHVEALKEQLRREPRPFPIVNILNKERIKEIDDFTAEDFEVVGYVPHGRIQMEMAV

[4] = Table 16, pIC50 = -log10 IC50, at least three replicates, read-out: hDHFR pIC50-DHFR primary assay (converted)
[5] = Table 17, pIC50 = -log10 IC50, at least three replicates, read-out: hDHFR pIC50-DHFR primary assay (converted)
[6] = Table 17, pIC50 = -log10 IC50, at least three replicates, read-out: tcDHFR pIC50-DHFR primary assay (converted)

Row | IC50 [1, 4] [nM] | IC50 [1, 5] [nM] | Average DHFR selectivity (h/tc) ([2]; Table 17) | IC50 [2, 6] [nM] | Compound | Average DHFR selectivity (h/tg) [3] | IC50 [3] [nM] | IC50 [1] [nM] | IC50 [2] [nM]
1 | 13200 | 13200 | 17.745 | 741 | Nc1ncc(N2CCN(c3ccccc3C3CCOCC3)CC2)c(N)n1 [Compound 175] | 4.39 | 3020 | – | –
2 | – | 68.4 | 25.16 | 2.82 | Nc1ncc(N2CCN(c3ccc(C4=CCOCC4)cc3)CC2)c(N)n1 [Compound 191, 5-(4-(4-(3,6-dihydro-2H-pyran-4-yl)phenyl)piperazin-1-yl)pyrimidine-2,4-diamine] | – | – | – | –
3 | 81.3 | 47.9 | 8.02 | 6.24 | Nc1ncc(N2CCN(c3ccnc(C(F)(F)F)c3)CC2)c(N)n1 [Compound 139, 5-(4-(2-(trifluoromethyl)pyridin-4-yl)piperazin-1-yl)pyrimidine-2,4-diamine] | 2.03 | 39.8 | – | –
4 | 447 | 452 | 60.24 | 7.5 | N#Cc1ncc(-c2cccc(N3CCN(c4cnc(N)nc4N)CC3)c2)cn1 [Compound 168] | 123.80 | 3.63 | – | –
5 | – | 2690 | 209.762 | 14 | COc1ccc(N2CCN(c3cnc(N)nc3N)CC2)cn1 [Compound 188, 5-(4-(6-methoxypyridin-3-yl)piperazin-1-yl)pyrimidine-2,4-diamine] | – | – | – | –
6 | 2880 | 2880 | 30.635 | 95.5 | Nc1ncc(C2CCN(c3cccc(C4CCOCC4)c3)CC2)c(N)n1 [Compound 178] | 104.18 | 27.5 | – | –
7 | – | – | – | – | Nc1ncc(N2CCN(c3ccc(C(F)(F)F)cc3)CC2)c(N)n1 [Compound 115, 5-(4-(4-(trifluoromethyl)phenyl)piperazin-1-yl)pyrimidine-2,4-diamine] | – | – | 813 | 6.17
8 | 871 | 871 | 12.205 | 73.3 | Nc1ncc(N2CCN(c3ccccc3C3=CCOCC3)CC2)c(N)n1 [Compound 193, 5-(4-(2-(3,6-dihydro-2H-pyran-4-yl)phenyl)piperazin-1-yl)pyrimidine-2,4-diamine] | 10.47 | 87.1 | – | –
9 | – | 180 | 24.92 | 7.41 | Nc1ncc(N2CCN(c3ccnc(Cl)c3)CC2)c(N)n1 [Compound 147, 5-(4-(2-chloropyridin-4-yl)piperazin-1-yl)pyrimidine-2,4-diamine] | – | – | – | –
10 | – | 653 | 59.955 | 10.8 | Nc1ncc(N2CCN(c3cccc(Cl)n3)CC2)c(N)n1 [Compound 150, 5-(4-(6-chloropyridin-2-yl)piperazin-1-yl)pyrimidine-2,4-diamine] | – | – | – | –
11 | 468 | 316 | 40.64 | 7.76 | COc1ncc(-c2cccc(N3CCC(c4cnc(N)nc4N)CC3)c2)cn1 [Compound 183, 5-(1-(3-(2-methoxypyrimidin-5-yl)phenyl)piperidin-4-yl)pyrimidine-2,4-diamine] | 146.21 | 3.39 | – | –
12 | 5010 | 5070 | 27.56 | 184 | COc1ncc(-c2ccccc2N2CCN(c3cnc(N)nc3N)CC2)cn1 [Compound 157] | 5.86 | 871 | – | –
13 | 1100 | 1110 | 45.785 | 25.4 | Nc1ncc(N2CCN(c3cccc(OC4CCOC4)c3)CC2)c(N)n1 (stereo not shown) [Compound 152, 5-(4-(3-((tetrahydrofuran-3-yl)oxy)phenyl)piperazin-1-yl)pyrimidine-2,4-diamine] | 47.37 | 23.4 | – | –
14 | 955 | 955 | 115.7 | 8.41 | Nc1ncc(C2CCN(c3ccc(C(F)(F)F)nc3)CC2)c(N)n1 [Compound 186] | 5.18 | 200 | – | –
15 | 6170 | 6170 | 95.3 | 66.1 | Nc1ncc(C2CCN(c3cnc(C(F)(F)F)nc3)CC2)c(N)n1 [Compound 187] | 3.56 | 1740 | – | –
16 | 158 | 158 | 20.1 | 8.04 | Cc1ccc(-c2cc(N3CCN(c4cnc(N)nc4N)CC3)ccn2)cc1 [Compound 167] | 14.56 | 11 | – | –
17 | 1620 | 610 | 30.425 | 20.2 | Nc1ncc(N2CCN(c3ccc(C4CCOCC4)cc3)CC2)c(N)n1 [Compound 173] | 4.18 | 389 | – | –
18 | – | 417 | 67.2 | 6.31 | Nc1ncc(N2CCN(c3ccc(Cl)nc3)CC2)c(N)n1 [Compound 141, 5-(4-(6-chloropyridin-3-yl)piperazin-1-yl)pyrimidine-2,4-diamine] | – | – | – | –
19 | 851 | 851 | 31.54 | 27.2 | Nc1ncc(N2CCN(c3cccc(OC4CCOCC4)c3)CC2)c(N)n1 [Compound 151, 5-(4-(3-((tetrahydro-2H-pyran-4-yl)oxy)phenyl)piperazin-1-yl)pyrimidine-2,4-diamine] | 50.16 | 17 | – | –
20 | – | 7410 | 222.395 | 33.5 | Cc1ccc(N2CCN(c3cnc(N)nc3N)CC2)cn1 [Compound 146, 5-(4-(6-methylpyridin-3-yl)piperazin-1-yl)pyrimidine-2,4-diamine] | – | – | – | –
21 | – | 8610 | 52.69 | 170 | Nc1ncc(N2CCN(c3cc(Cl)ccc3F)CC2)c(N)n1 [Compound 144, 5-(4-(5-chloro-2-fluorophenyl)piperazin-1-yl)pyrimidine-2,4-diamine] | – | – | – | –
22 | 309 | 313 | 41.01 | 8.04 | N#Cc1ccc(N2CCN(c3cnc(N)nc3N)CC2)cn1 [Compound 189, 5-(4-(2,4-diaminopyrimidin-5-yl)piperazin-1-yl)picolinonitrile] | 1.39 | 224 | – | –
23 | – | 1970 | 122.69 | 16.2 | Nc1ncc(N2CCN(c3ccc(Cl)cn3)CC2)c(N)n1 [Compound 149, 5-(4-(5-chloropyridin-2-yl)piperazin-1-yl)pyrimidine-2,4-diamine] | – | – | – | –
24 | – | 3720 | 60.75 | 61.7 | Nc1ncc(N2CCN(c3ccc(F)nc3)CC2)c(N)n1 [Compound 156, 5-(4-(6-fluoropyridin-3-yl)piperazin-1-yl)pyrimidine-2,4-diamine] | – | – | – | –
25 | – | 617 | 90.29 | 7 | Nc1ncc(N2CCN(c3ccc(C(F)(F)F)cn3)CC2)c(N)n1 [Compound 140, 5-(4-(5-(trifluoromethyl)pyridin-2-yl)piperazin-1-yl)pyrimidine-2,4-diamine] | – | – | – | –

Row | Compound | IC50 [1, 4] [nM] | IC50 [1, 5] [nM] | Average DHFR selectivity (h/tc) ([2]; Table 17) | IC50 [2, 6] [nM] | Average DHFR selectivity (h/tg) [3] | IC50 [3] [nM] | IC50 [1] [nM] | IC50 [2] [nM]
26 | Nc1ncc(N2CCN(c3ccc(F)cc3)CC2)c(N)n1 [Compound 116, 5-(4-(4-fluorophenyl)piperazin-1-yl)pyrimidine-2,4-diamine] | – | 5010 | – | – | – | – | – | 50.1
27 | Nc1ncc(N2CCN(c3ccc(C(F)(F)F)nc3)CC2)c(N)n1 [Compound 112] | – | 2040 | – | – | – | – | – | 5.62
28 | Nc1ncc(N2CCN(c3cccc(-c4ccncn4)c3)CC2)c(N)n1 [Compound 102, 5-(4-(3-(pyrimidin-4-yl)phenyl)piperazin-1-yl)pyrimidine-2,4-diamine] | – | 1660 | – | – | – | – | – | 15.8
29 | COc1ccc(N2CCN(c3cnc(N)nc3N)CC2)cc1 [Compound 114, 5-(4-(4-methoxyphenyl)piperazin-1-yl)pyrimidine-2,4-diamine] | – | 813 | – | – | – | – | – | 5.62
